Laboratory results: article PMC3670040, “Structure of Lipid Kinase p110β/p85β Elucidates an Unusual SH2-Domain-Mediated Inhibitory Mechanism” (Molecular Cell, 2011)
Square brackets hold non-standard residues; d marks the D form. Ends that are not written are not given here. pY = N[C@@H](Cc1ccc(OP(=O)(O)O)cc1)C(=O)O

Test system: p110β/p85β-nic
Experiment: ATPase activity (ADP formation) in the absence of lipid substrate, Transcreener
Assay type: biochemical, mouse
Settings: p110β/p85-niSH2 and p110β/p85-icSH2 complexes; absence of lipid substrate
Description: Figure 1 Inhibition of p110β by p85-Type Regulatory Subunits and Activation of the Complexes by RTK Phosphopeptide (A) Domain organization of p110β and the regulatory subunits p85α, p85β, and p55γ. The color scheme for the domains is used for all figures, unless otherwise stated. […] The inhibition is released upon addition of the 10 μM PDGFR pY2. […] The y axis is expressed as a change in fluorescence polarization (ΔmP), which is obtained by subtracting the observed polarization for the construct at a given enzyme concentration from the maximum fluorescence polarization for that construct. The plateau in these assays arises due to the competitive nature of the ADP detection system, based on displacement of ADP-Alexa 633 tracer from the ADP^2-antibody by ADP generated during the PI3K assay (see Supplemental Experimental Procedures). All measurements were done in triplicates, and the error bars indicate the standard error of the mean (SEM). […]
The lipid kinase activity was determined using the Transcreener ADP2 FP Assay (BellBrook Labs, Madison, WI) according to manufacturer‟s specifications. This non-radioactive assay measures activity by quantitating the amount of ADP formed. The ADP formed by PI3K competes with fluorescent ADP tracer for binding to an anti-ADP antibody, thereby decreasing fluorescence polarization. […]

## ESDGG[pY]MDMSKDESID[pY]VPMLDMKGDIKYADIE [pY2, bis-phosphopeptide (PDGFR 735–767, with pY740 and pY751)]
  ATPase activity in the presence of pY2: enhanced
